# Measurements reported in patent US8202865B2, “Oxadiazole derivatives” (Merck Serono SA, priority 2007, dated 2012).
# Where a name gives a salt, the structure may show the parent alone.
# What was measured:
# S1P1 [1] = target: T1, S1P1 (Homo sapiens, UniProt P21453); test: Receptor binding assay, [33P]sphingosine 1-phosphate, membranes, WGA SPA beads; conditions: membranes from CHO cells expressing S1P1; 25 pM [33P]S1P; 60 min RT
# T1 construct: expressed in transfected cells; host or cells: CHO cells (membranes)
# T1 sequence (P21453 whole entry, species assumed): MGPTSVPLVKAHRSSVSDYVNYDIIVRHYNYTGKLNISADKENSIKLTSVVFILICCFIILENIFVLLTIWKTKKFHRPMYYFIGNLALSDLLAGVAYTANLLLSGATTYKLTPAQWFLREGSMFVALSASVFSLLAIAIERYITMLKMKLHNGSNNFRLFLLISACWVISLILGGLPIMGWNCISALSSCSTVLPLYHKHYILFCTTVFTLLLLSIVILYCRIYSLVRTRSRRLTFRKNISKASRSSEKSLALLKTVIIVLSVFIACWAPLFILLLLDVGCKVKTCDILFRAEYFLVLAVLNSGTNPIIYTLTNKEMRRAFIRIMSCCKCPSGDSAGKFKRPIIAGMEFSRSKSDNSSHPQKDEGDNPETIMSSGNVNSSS
# Description: (§1) Receptor binding assay: Membranes were prepared from CHO cells expressing S1P1 or S1P3 for use in ligand and […] binding studies. Cells were suspended in 50 mM TRIS, pH 7.4, 2 mM EDTA, 250 mM Sucrose (buffer A) and 1× Complete protease inhibitor cocktail (Roche), and disrupted at 4° C. by N2 decompression using a cell disruption bomb (Parr Instrument). Following centrifugation at 1000 RPM for 10 min at 4° C., the supernatant was suspended in buffer A and centrifuged again at 19000 RPM for 60 min at 4° C. The pellet was then suspended in 10 mM HEPES, pH 7.4, 1 mM EDTA, 250 mM Sucrose (Buffer B), and 1× Complete EDTA-free protease inhibitor cocktail and homogenized using a potter. Membranes were flash frozen in liquid N2 and stored at −80° C. [33P]sphingosine 1-phosphate (3000 Ci/mmol; American Radiolabeled Chemicals, Inc.) was added to test compounds in DMSO. Membranes and WGA SPA beads (GE Healthcare) were added to give a final volume of 100 μl in 96-well plates with assay concentrations of 25 pM or 10 pM [33P]sphingosine 1-phosphate (respectively for S1P1 or S1P3), 50 mM HEPES, pH 7.5, 5 mM MgCl2, 100 mM NaCl, 0.4% fatty acid-free BSA, 1-5 μg/well of proteins and 100 μg/well of WGA SPA beads. Binding was performed for 60 min at RT on a shaker and bound radioactivity was measured on a PerkinElmer 1450 MicroBeta counter. Specific binding was calculated by subtracting remaining radioactivity in the presence of 1000-fold excess of unlabeled S1P. Binding data were analyzed using the GraphPad Prism program.
# S1P1 [2] = target: T1, S1P1; test: 35S-GTPγS binding, S1P1 membranes; type: biochemical; conditions: membranes from CHO cells expressing S1P1; 60 min 30° C.
# Outline: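 CHO-cell membranes expressing S1P1 or S1P3 (1-10 μg) incubated with compounds in 20 mM HEPES pH 7.4, 10 mM MgCl2, 140 mM NaCl, saponin, 0.2% BSA, 1.7 μM GDP and [35S]-GTPγS (20 μl of 1.5 nM added), 60 min at 30° C. Bound radioactivity expressed as % of S1P activation.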
# S1P3 = target: T2, S1P3 (Homo sapiens, UniProt Q99500); test: 35S-GTPγS binding, S1P3 membranes; type: biochemical; conditions: membranes from CHO cells expressing S1P3; 60 min 30° C.
# T2 construct: expressed in transfected cells; host or cells: CHO cells (membranes)
# T2 sequence (Q99500 whole entry, species assumed): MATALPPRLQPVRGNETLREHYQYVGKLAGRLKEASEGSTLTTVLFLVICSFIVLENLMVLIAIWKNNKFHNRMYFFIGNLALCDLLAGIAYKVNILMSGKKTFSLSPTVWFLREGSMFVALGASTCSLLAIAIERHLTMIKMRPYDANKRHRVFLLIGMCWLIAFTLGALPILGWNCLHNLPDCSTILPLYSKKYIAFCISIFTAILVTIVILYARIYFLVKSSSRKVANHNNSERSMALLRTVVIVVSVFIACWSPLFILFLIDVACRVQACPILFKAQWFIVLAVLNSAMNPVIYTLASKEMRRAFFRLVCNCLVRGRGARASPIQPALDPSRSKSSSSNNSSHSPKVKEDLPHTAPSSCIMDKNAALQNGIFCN
# Description: as §1
# Measurements of ^35S-GTPγS Binding: Membranes (1 to 10 μg protein) prepared as described above, were incubated in 96-well Scintiplates (PerkinElmer) with test compounds diluted in DMSO, in 180 μl of 20 mM HEPES, pH 7.4, 10 mM MgCl2, 2 μg/well Saponin, 0.2% fatty acid free BSA (Assay buffer), 140 mM NaCl and 1.7 μM GDP. The assay was initiated with the addition of 20 μl of 1.5 nM [35S]-GTPγS (1100 Ci/mmol; GE Healthcare) in assay buffer. After 60 min incubation at 30° C. on a shaker, plates were centrifuged for 10 min at 2000 RPM. Supernatant was discarded and membrane bound radioactivity was measured on a PerkinElmer 1450 MicroBeta counter. Triplicate samples were averaged and expressed as % response relative to S1P activation in absence of compound (n=2).
SMILES,Ki (S1P1 [1]) [nM],EC50 (S1P1 [2]) [nM],EC50 (S1P3) [nM]
"COCc1cc(-c2nc(-c3cccc(CO)c3)no2)ccc1-c1ccccc1C [Example 189, (3-{5-[2-(methoxymethyl)-2′-methylbiphenyl-4-yl]-1,2,4-oxadiazol-3-yl}phenyl)methanol]",1,2.1,574
"COCc1cc(-c2nc(-c3ccc(C(N)=O)c(F)c3)no2)ccc1-c1ccccc1C [Example 179, 2-fluoro-4-{5-[2-(methoxymethyl)-2′-methylbiphenyl-4-yl]-1,2,4-oxadiazol-3-yl}benzamide]",3,8,274
"COCc1cc(-c2nc(-c3ccc(C(=O)NCC(=O)O)c(F)c3)no2)ccc1-c1ccccc1C [Example 124, N-(2-fluoro-4-{5-[2-(methoxymethyl)-2′-methylbiphenyl-4-yl]-1,2,4-oxadiazol-3-yl}benzoyl)glycine]",2,22,1000
"COCc1cc(-c2nc(-c3ccc(C(=O)NC(C)CC(=O)O)c(F)c3)no2)ccc1-c1ccccc1C (stereo not shown) [Example 123, 3-[(2-fluoro-4-{5-[2-(methoxymethyl)-2′-methylbiphenyl-4-yl]-1,2,4-oxadiazol-3-yl}benzoyl)amino]butanoic acid]",4,37.3,1210
"CC1CCCCN1c1ccc(-c2nc(-c3ccc(C(=O)O)c(F)c3)no2)cc1NS(C)(=O)=O (stereo not shown) [Example 30, 2-fluoro-4-(5-{4-(2-methylpiperidin-1-yl)-3-[(methylsulfonyl)amino]phenyl}-1,2,4-oxadiazol-3-yl)benzoic acid]",40,50,5930
"COCc1cc(-c2nc(-c3cccc(S(C)(=O)=O)c3)no2)ccc1-c1ccccc1C [Example 194, 5-[2-(methoxymethyl)-2′-methylbiphenyl-4-yl]-3-[3-(methylsulfonyl)phenyl]-1,2,4-oxadiazole]",1.6,1,1720
"COCc1cc(-c2nc(-c3ccc(C(=O)O)c(F)c3)no2)ccc1N1CCCCC1C (stereo not shown) [Example 114, 2-fluoro-4-{5-[3-(methoxymethyl)-4-(2-methylpiperidin-1-yl)phenyl]-1,2,4-oxadiazol-3-yl}benzoic acid]",2.7,13,2810
"COc1cc(-c2nc(-c3ccc(C(=O)O)c(F)c3)no2)ccc1-c1ccccc1C [Example 13, 2-fluoro-4-[5-(2-methoxy-2′-methylbiphenyl-4-yl)-1,2,4-oxadiazol-3-yl]benzoic acid]",130,341,> 30000
"COc1cc(-c2nc(-c3ccc(C(=O)O)c(F)c3)no2)ccc1-c1cscc1C [Example 12, 2-fluoro-4-{5-[3-methoxy-4-(4-methyl-3-thienyl)phenyl]-1,2,4-oxadiazol-3-yl}benzoic acid]",60,148,> 30000
"COCc1cc(-c2nc(-c3cccc(C(=O)O)c3)no2)ccc1-c1ccccc1C [Example 92, 3-{5-[2-(methoxymethyl)-2′-methylbiphenyl-4-yl]-1,2,4-oxadiazol-3-yl}benzoic acid]",37,63,1250
"CCc1ccccc1-c1ccc(-c2nc(-c3cccc(CN(C)CC(=O)O)c3)no2)cc1COC [Example 143, N-(3-{5-[2′-ethyl-2-(methoxymethyl)biphenyl-4-yl]-1,2,4-oxadiazol-3-yl}benzyl)-N-methylglycine, hydrochloride salt]",0.8,0.6,281
"COCc1ccccc1-c1ccc(-c2nc(-c3ccc(C(=O)O)c(F)c3)no2)cc1COC [Example 85, 4-{5-[2,2′-bis(methoxymethyl)biphenyl-4-yl]-1,2,4-oxadiazol-3-yl}-2-fluorobenzoic acid]",,556,2300
"Cc1ccccc1-c1ccc(-c2nc(-c3ccc(C(=O)NCCC(=O)O)c(F)c3)no2)cc1C [Example 55, N-{4-[5-(2,2′-dimethylbiphenyl-4-yl)-1,2,4-oxadiazol-3-yl]-2-fluorobenzoyl}-beta-alanine]",,53,12600
"Cc1ccccc1-c1ccc(-c2nc(-c3ccc(C(=O)O)c(F)c3)no2)cc1[N+](=O)[O-] [Example 11, 2-fluoro-4-[5-(2′-methyl-2-nitrobiphenyl-4-yl)-1,2,4-oxadiazol-3-yl]benzoic acid]",,645,> 30000
"COCc1cc(-c2nc(-c3ccc(OCCCC(=O)O)c(F)c3)no2)ccc1-c1ccccc1C [Example 168, 4-(2-fluoro-4-{5-[2-(methoxymethyl)-2′-methylbiphenyl-4-yl]-1,2,4-oxadiazol-3-yl}phenoxy)butanoic acid]",,7.8,219
"COCc1cc(-c2nc(-c3ccc(F)c(CN(C)CC(=O)O)c3)no2)ccc1N1CCCCC1C (stereo not shown) [Example 152, N-(2-fluoro-5-{5-[3-(methoxymethyl)-4-(2-methylpiperidin-1-yl)phenyl]-1,2,4-oxadiazol-3-yl}benzyl)-N-methylglycine, Dihydrochloride salt]",,0.6,223
"CC(C)Oc1ncc(-c2nc(-c3ccc(OCC(=O)O)c(F)c3)no2)cc1Cl [Example 53, {4-[5-(5-chloro-6-isopropoxypyridin-3-yl)-1,2,4-oxadiazol-3-yl]-2-fluorophenoxy}acetic acid]",,294,> 20000
"Cc1ccccc1-c1ccc(-c2nc(-c3ccc(C(=O)NCC(=O)O)c(F)c3)no2)cc1C [Example 54, N-{4-[5-(2,2′-dimethylbiphenyl-4-yl)-1,2,4-oxadiazol-3-yl]-2-fluorobenzoyl}glycine]",,168,6430
"COCc1cc(-c2nc(-c3cccc(OCC(=O)O)c3)no2)ccc1-c1ccccc1C [Example 167, (3-{5-[2-(methoxymethyl)-2′-methylbiphenyl-4-yl]-1,2,4-oxadiazol-3-yl}phenoxy)acetic acid]",10,22.4,
"CCC(C)Oc1ncc(-c2nc(-c3ccc(OCC(=O)O)c(F)c3)no2)cc1Cl (stereo not shown) [Example 50, {4-[5-(6-sec-butoxy-5-chloropyridin-3-yl)-1,2,4-oxadiazol-3-yl]-2-fluorophenoxy}acetic acid]",50,261,
"COCc1cc(-c2nc(-c3ccc(C(=O)NCC(=O)OC)c(F)c3)no2)ccc1-c1ccccc1C [Example 122, Methyl N-(2-fluoro-4-{5-[2-(methoxymethyl)-2′-methylbiphenyl-4-yl]-1,2,4-oxadiazol-3-yl}benzoyl)glycinate]",0.9,2.5,
"CC1CCCCN1c1ccc(-c2nc(-c3ccc(C(=O)O)c(F)c3)no2)cc1[N+](=O)[O-] (stereo not shown) [Example 15, 2-fluoro-4-{5-[4-(2-methylpiperidin-1-yl)-3-nitrophenyl]-1,2,4-oxadiazol-3-yl}benzoic acid]",,1220,> 30000
"CC1CCCCN1c1ccc(-c2nc(-c3cccc(CN(C)CC(=O)O)c3)no2)cc1NS(C)(=O)=O (stereo not shown) [Example 57, N-methyl-N-[3-(5-{4-(2-methylpiperidin-1-yl)-3-[(methylsulfonyl)amino]phenyl}-1,2,4-oxadiazol-3-yl)benzyl]glycine, Hydrochloride salt]",6,4,
"COc1ccccc1-c1ccc(-c2nc(-c3ccc(C(=O)O)c(F)c3)no2)cc1C [Example 7, 2-fluoro-4-[5-(2′-methoxy-2-methylbiphenyl-4-yl)-1,2,4-oxadiazol-3-yl]benzoic acid]",,924,> 30000
"COCc1cc(-c2nc(-c3cccc(CCO)c3)no2)ccc1-c1ccccc1C [Example 190, 2-(3-{5-[2-(methoxymethyl)-2′-methylbiphenyl-4-yl]-1,2,4-oxadiazol-3-yl}phenyl)ethanol]",4.3,0.7,
